Where a name gives a salt, the structure may show the parent alone.

The melting point is the temperature, or range, at which the solid turns liquid. Turning to `COc1ccc2[nH]cc(CCN3CCN(C(=O)CCCCCCC(=O)NO)CC3)c2c1.O=C(O)C(=O)O`, the melting point fell in the range of 122 to 125 °C.
Under `O=C(CCCCCC(=O)N1CCN(c2ccccn2)CC1)NO` (as salt: oxalate) [PX118845, 7-Oxo-7-(4-pyridin-2-yl-piperazin-1-yl]-heptanoic acid hydroxyamide oxalate] stands 118 to 122 °C; under `O=C(CCCCCCC(=O)N1CCN(c2ccccc2)CC1)NO` [PX117402, 8-Oxo-8-(4-phenyl-piperazin-1-yl)-octanoic acid hydroxyamide], 134 to 136 °C; under `O=C(CCCCCCC(=O)N1CCN(c2cccc(F)c2)CC1)NO` [PX118859, 8-[4-(3-Fluorophenyl)-piperazin-1-yl]-8-oxooctanoic acid hydroxyamide], 149 to 150.5 °C.
`O=C(CCCCCCC(=O)N1CCN(c2cccc(C(F)(F)F)c2)CC1)NO` [PX118860, 8-Oxo-8-[4-(3-trifluoromethylphenyl)-piperazin-1-yl]-octanoic acid hydroxyamide] yielded a melting point of 126 to 128 °C.
Then `O=C(/C=C/c1cccc(S(=O)(=O)N2CCN(C/C=C/c3ccccc3)CC2)c1)NO` [PX118870, (E)-N-Hydroxy-3-[3-({4-[(E)-3-phenyl-2-propenyl]-1-piperazinyl}sulfonyl)phenyl]-2-propenamide], with 178 °C; and `COc1cccc(N2CCN(S(=O)(=O)c3cccc(/C=C/C(=O)NO)c3)CC2)c1` [PX118872, (E)-N-hydroxy-3-(3-{[4(3-methoxyphenyl)piperazinyl]sulfonyl}phenyl)-2-propenamide], with 196 °C.
Take `O=C(/C=C/c1cccc(S(=O)(=O)N2CCN(Cc3ccc4c(c3)OCO4)CC2)c1)NO` [PX118873, (E)-3-(3-{[4-(1,3-Benzodioxol-5-ylmethyl)-1-piperazinyl]sulfonyl}-phenyl)-N-hydroxy-2-propenamide]: the melting point was 172 °C.
Then `O=C(/C=C/c1cccc(S(=O)(=O)N2CCN(Cc3ccccc3)CC2)c1)NO` [PX118874, (E)-3-{3-[(4-Benzyl-1-piperazinyl)sulfonyl]phenyl}-N-hydroxy-2-propenamide], with 185 °C; and `O=C(/C=C/c1cccc(S(=O)(=O)N2CCN(c3ccccc3F)CC2)c1)NO` [PX118877, (E)-3-(3-{[4-(2-Fluorophenyl)-1-piperazinyl]sulfonyl}phenyl)-N-hydroxy-2-propenamide], with 176 °C.
Under `O=C(/C=C/c1cccc(S(=O)(=O)N2CCN(c3cccc(C(F)(F)F)c3)CC2)c1)NO` [PX118878, (E)-N-Hydroxy-3-[3-({4-[3-(trifluoromethyl)phenyl]-1-piperazinyl}sulfonyl)phenyl]-2-propenamide] stands 173 °C; under `O=C(/C=C/c1ccc(S(=O)(=O)N2CCN(c3ccccc3F)CC2)cc1)NO` [PX118891, (E)-3-(4-{[4-(2-Fluorophenyl)-1-piperazinyl]sulfonyl}phenyl)-N-hydroxy-2-propenamide], 196 to 197 °C.
Then `COc1cccc(N2CCN(S(=O)(=O)c3ccc(/C=C/C(=O)NO)cc3)CC2)c1` [PX118892, (E)-N-Hydroxy-3-(4-{[4-(3-methoxyphenyl)-1-piperazinyl]sulfonyl}phenyl)-2-propenamide], with 199 to 200 °C; and `O=C(/C=C/c1cccc(S(=O)(=O)N2CCN(c3ncccn3)CC2)c1)NO` [PX118894, (E)-N-Hydroxy-3-(3{-[4-(2-pyrimidinyl)-1-piperazinyl]sulfonyl}-phenyl)-2-propenamide], with 200 °C.
Molecule `Cc1cccc(N2CCN(C(=O)CCCCCCC(=O)NO)CC2C)c1` (stereo not drawn) [PX118899, 8-(3-Methyl-4-m-tolyl-piperazin-1-yl)-8-oxo octanoic acid hydroxyamide] showed a melting point of 75 to 76 °C.
`C/C(=N\O)c1ccc(N2CCN(C(=O)CCCCCCC(=O)NO)CC2)cc1` [PX118903, 8-{4-[4-(1-Hydroxyimino-ethyl)-phenyl]-piperazin-1-yl}-8-oxo octanoic acid hydroxyamide] came in with a melting point of 147 to 147.5 °C.
Then `O=C(CCCCCCC(=O)N1CCN(CCc2ccc3ccccc3c2)CC1)NO` [PX118908, 8-[4-(2-Naphthalen-2-yl-ethyl)-piperazin-1-yl]-8-oxo octanoic acid hydroxyamide], with 118 to 120 °C; and `O=C(CCCCCCC(=O)N1CCN(CC(c2ccccc2)c2ccccc2)CC1)NO` [PX118909, 8-[4-(2,2-Diphenyl-ethyl)-piperazin-1-yl]-8-oxo octanoic acid hydroxyamide], with 117 to 118 °C; and `O=C(/C=C/c1cccc(S(=O)(=O)N2CCN(CC(c3ccccc3)c3ccccc3)CC2)c1)NO` [PX118913, (E)-3-(3-{[4-(2,2-Diphenylethyl)-1-piperazinyl]sulfonyl}phenyl)-N-hydroxy-2-propenamide], with 117 °C (dec.).
Then `O=C(/C=C/c1cccc(S(=O)(=O)N2CCN(CCc3ccc4ccccc4c3)CC2)c1)NO` [PX118914, (E)-N-Hydroxy-3-[3-({4-[2-(2naphthyl)ethyl]-1-piperazinyl}sulfonyl)phenyl]-2-propenamide], with 184 °C; and `O=C(/C=C/c1ccc(S(=O)(=O)N2CCN(c3ccc([N+](=O)[O-])cc3)CC2)cc1)NO` [PX118918, (E)-N-Hydroxy-3-(4-{[4-(4-nitrophenyl)-1-piperazinyl]sulfonyl}phenyl)-2-propenamide], with 199 to 200 °C.
Under `CN(C)c1ccc(CCN2CCN(C(=O)CCCCCCC(=O)NO)CC2)cc1` [PX118928, 8-{4-[4-(Dimethylamino)phenethyl]-1-piperazinyl}-N-hydroxy-8-oxooctanamide] stands 103 to 105 °C; under `O=C(CCCCCCC(=O)N1CCN(C(=O)COc2ccc3ccccc3c2)CC1)NO` [PX118929, N-Hydroxy-8-{4-[2-(2-naphthyloxy)acetyl]-1-piperazinyl}-8-oxooctanamide], 139 to 140.5 °C; under `C=C(Cl)c1ccc(N2CCN(S(=O)(=O)c3cccc(/C=C/C(=O)NO)c3)CC2)cc1` [PX118933, (E)-3-[3-({4-[4-(1-Chlorovinyl)phenyl]-1-piperazinyl}sulfonyl)phenyl]-N-hydroxy-2-propenamide], 203 °C (dec.).
`O=C(/C=C/c1cccc(S(=O)(=O)N2CCN(CCOc3cccc4ccccc34)CC2)c1)NO` [PX118934, (E)-N-Hydroxy-3-[3-({4-[2-(1-naphthyloxy)ethyl]-1-piperazinyl}-sulfonyl)phenyl]-2-propenamide] came in with a melting point of 178 °C.
As for `O=C(/C=C/c1cccc(S(=O)(=O)N2CCN(CCOc3ccc4ccccc4c3)CC2)c1)NO` [PX118935, (E)-N-Hydroxy-3-[3-({4-[2-(2-naphthyloxy)ethyl]-1-piperazinyl}-sulfonyl)phenyl]-2-propenamide], the melting point came to 130 °C.
Then `O=C(/C=C/c1ccc(S(=O)(=O)N2CCN(c3cccc(C(F)(F)F)c3)CC2)cc1)NO` [PX118937, (E)-N-Hydroxy-3-[4-({4-[3-(trifluoromethyl)phenyl]-1-piperazinyl}-sulfonyl)phenyl]-2-propenamide], with 178 to 179 °C.

Source of the values: patent US20080269237A1, “CARBAMIC ACID COMPOUNDS COMPRISING A PIPERAZINE LINKAGE AS HDAC INHIBITORS” (TOPOTARGET UK LIMITED, priority 2002, published 2008).
